How the values were obtained:
[1] = system: EGFR Del19/T790M/C797S (H1975-clone #28 cells); experiment: EGFR degradation HTRF assay in H1975-clone #28 cells; format: cell-based; conditions: H1975-clone #28(Del19/T790M/C797S) cells, 16 h treatment, Table 2; for DC50: read-out: H1975 # 28 DTC DC50; for H1975 # 28 DTC Dmax: maximum percentage of degradation
Protocol: H1975-clone #28(Del19/T790M/C797S) was stably expressed in H1975 cell lines (from ATCC) by lentivirus-mediated over-expression. The EGFR over-expressed cells then underwent gene knockout, in which the EGFR targeting sgRNA was designed to only target the endogenous EGFR copies and preserve the exogenous EGFR copies. Followed by the gene knockout, the edited H1975 cells were seeded in 96 well plates at the concentration of […], cultured for about 2 weeks to allow single clones formation. The formed clones were screened by DNA sequencing and whole exon sequencing analysis for the desired edition. H1975-clone #28 was finally confirmed as homozygous Del19/T790M/C797S EGFR clone
(§1) BaF3-LTC(L858R/T790M/C797S) and BaF3-DTC(Del19/T790M/C797S) cells are treated with compounds diluted in 0.2% DMSO cell culture medium and incubate for 16 h, 37° C., 5% CO2, H1975- #28 cells are treated with compounds diluted in 0.2% DMSO cell culture medium on day 2, incubate for 16 h, 37° C., 5% CO2. the final concentration of compounds in all assay is start with 10 uM, 5-fold dilution, total 8 doses were included.
(§2) After 16 h treatment, add HTRF lysis buffer to each well; seal the plate and incubate 1 hour at room temperature on a plate shaker; Once the cells are lysed, 16 μL of cell lysate are transferred to a PE 384-well HTRF detection plate; 4 μL of pre-mixed HTRF antibodies are added to each well; Cover the plate with a plate sealer, spin 1000 rpm for 1 min, Incubate overnight at room temperature; Read on BMG PheraStar with HTRF protocol (337 nm-665 nm-620 nm).
(§3) The IC50 (DC50) value of a compound can be obtained by fitting the following equation
(§4) Y=Bottom+(TOP−Bottom)/(1+((IC50/X)^hillslope))
(§5) Wherein, X and Y are known values, and IC50, Hillslope, Top and Bottom are the parameters obtained by fitting with software. Y is the inhibition percentage (calculated from the equation), X is the concentration of the compound; IC50 is the concentration of the compound when the 50% inhibition is reached. The smaller the IC50 value is, the stronger the inhibitory ability of the compound is. Vice versa, the higher the IC50 value is, the weaker the ability the inhibitory ability of the compound is; Hillslope represents the slope of the fitted curve, generally around 1*; Bottom represents the minimum value of the curve obtained by data fitting, which is generally 0%±20%; Top represents the maximum value of the curve obtained by data fitting, which is generally 100%±20%. The experimental data were fitted by calculating and analyzing with Dotmatics data analysis software.

[2] = target: EGFR L858R/T790M/C797S (BaF3-LTC cells) (Homo sapiens (Human), UniProt P00533, C797S/L858R/T790M); experiment: EGFR degradation HTRF assay in BaF3-LTC cells; format: cell-based; conditions: 16 h treatment; for DC50: Table 2, read-out: BaF3-LTC DC50; for Dmax: maximum percentage of degradation, Table 2, read-out: BaF3-LTC Dmax
Protocol: as §1, §2, §3, §4, §5

EGFR L858R/T790M/C797S (BaF3-LTC cells), sequence (P00533 25-1210 T790M/C797S/L858R): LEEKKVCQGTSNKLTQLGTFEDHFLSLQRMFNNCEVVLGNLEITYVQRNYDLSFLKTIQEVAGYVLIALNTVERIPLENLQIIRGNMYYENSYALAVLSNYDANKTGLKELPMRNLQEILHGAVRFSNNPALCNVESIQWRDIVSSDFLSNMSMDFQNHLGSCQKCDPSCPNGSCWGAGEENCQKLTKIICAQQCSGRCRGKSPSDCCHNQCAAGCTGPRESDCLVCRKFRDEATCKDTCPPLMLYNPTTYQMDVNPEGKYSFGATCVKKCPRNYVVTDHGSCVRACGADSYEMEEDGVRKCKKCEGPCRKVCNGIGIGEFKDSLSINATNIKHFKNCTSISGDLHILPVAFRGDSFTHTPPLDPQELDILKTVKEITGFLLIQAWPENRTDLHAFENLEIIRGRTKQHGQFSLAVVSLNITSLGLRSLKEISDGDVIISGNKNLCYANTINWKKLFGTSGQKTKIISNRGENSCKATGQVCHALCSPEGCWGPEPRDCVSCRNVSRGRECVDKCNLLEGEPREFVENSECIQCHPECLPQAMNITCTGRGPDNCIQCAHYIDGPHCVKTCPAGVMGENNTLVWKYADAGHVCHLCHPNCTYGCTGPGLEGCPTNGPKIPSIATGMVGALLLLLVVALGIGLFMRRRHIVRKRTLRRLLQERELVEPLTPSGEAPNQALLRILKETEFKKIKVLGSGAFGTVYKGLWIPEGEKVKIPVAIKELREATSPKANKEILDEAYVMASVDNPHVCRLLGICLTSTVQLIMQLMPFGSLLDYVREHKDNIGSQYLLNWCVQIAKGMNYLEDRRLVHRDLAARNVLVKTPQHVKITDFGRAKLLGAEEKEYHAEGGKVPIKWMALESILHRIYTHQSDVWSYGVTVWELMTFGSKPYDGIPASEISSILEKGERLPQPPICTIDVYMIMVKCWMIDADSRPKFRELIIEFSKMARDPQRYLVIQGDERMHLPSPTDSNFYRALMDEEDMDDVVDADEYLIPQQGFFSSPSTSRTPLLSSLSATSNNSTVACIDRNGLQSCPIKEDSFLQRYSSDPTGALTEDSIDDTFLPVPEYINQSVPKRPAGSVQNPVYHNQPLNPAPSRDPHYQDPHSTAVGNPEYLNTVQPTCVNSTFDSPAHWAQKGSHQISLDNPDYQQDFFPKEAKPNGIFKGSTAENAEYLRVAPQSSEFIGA

DC50 [1]	DC50 [2]	Dmax [2]	Compound	H1975 # 28 DTC Dmax [1]
> 10000 nM	360 nM	57.2%	CCc1ccc2c(P(C)(C)=O)c(Nc3nc(Nc4cc(CC)c(N5CCC(N6CCN(C(=O)[C@@H]7CCN(c8cc(F)c([C@@H]9CCC(=O)NC9=O)c(F)c8)C7)CC6)CC5)cc4OC)ncc3Br)ccc2n1 [Example 25, (S)-3-(4-((R)-3-(4-(1-(4-((5-bromo-4-((5-(dimethylphosphoryl)-2-ethylquinolin-6-yl)amino)pyrimidin-2-yl)amino)-2-ethyl-5-methoxyphenyl)piperidin-4-yl)piperazine-1-carbonyl)pyrrolidin-1-yl)-2,6-difluorophenyl)piperidine-2,6-dione]	−8.4%
0.851 nM	–	–	CCc1cc(Nc2ncc(Br)c(Nc3ccc4nc(C)ccc4c3P(C)(C)=O)n2)c(OC2CC2)cc1N1CCC(N2CCN(CCc3cc(F)c([C@H]4CCC(=O)NC4=O)c(F)c3)CC2)CC1 [Example 26, (R)-3-(4-(2-(4-(1-(4-((5-bromo-4-((5-(dimethylphosphoryl)-2-methylquinolin-6-yl)amino)pyrimidin-2-yl)amino)-5-cyclopropoxy-2-ethylphenyl)piperidin-4-yl)piperazin-1-yl)ethyl)-2,6-difluorophenyl)piperidine-2,6-dione]	86.08%
1.17 nM	5.23 nM	–	CCc1cc(Nc2ncc(Br)c(Nc3ccc4nc(C)ccc4c3P(C)(C)=O)n2)c(OC)cc1N1CCC(N2CCN(C(=O)[C@@H]3CCN(c4cc(F)c([C@H]5CCC(=O)NC5=O)c(F)c4)C3)CC2)CC1 [Example 22, (R)-3-(4-((R)-3-(4-(1-(4-((5-bromo-4-((5-(dimethylphosphoryl)-2-methylquinolin-6-yl)amino)pyrimidin-2-yl)amino)-2-ethyl-5-methoxyphenyl)piperidin-4-yl)piperazine-1-carbonyl)pyrrolidin-1-yl)-2,6-difluorophenyl)piperidine-2,6-dione]	84.8%
> 10000 nM	90 nM	69%	CCc1ccc2c(P(C)(C)=O)c(Nc3nc(Nc4cc(CC)c(N5CCC(N6CCN(CCc7cc(F)c([C@@H]8CCC(=O)NC8=O)c(F)c7)CC6)CC5)cc4OC)ncc3Br)ccc2n1 [Example 20, (S)-3-(4-(2-(4-(1-(4-((5-bromo-4-((5-(dimethylphosphoryl)-2-ethylquinolin-6-yl)amino)pyrimidin-2-yl)amino)-2-ethyl-5-methoxyphenyl)piperidin-4-yl)piperazin-1-yl)ethyl)-2,6-difluorophenyl)piperidine-2,6-dione]	19.09%
0.78 nM	6.77 nM	–	CCc1ccc2c(P(C)(C)=O)c(Nc3nc(Nc4cc(CC)c(N5CCC(N6CCN(CCc7cc(F)c([C@H]8CCC(=O)NC8=O)c(F)c7)CC6)CC5)cc4OC)ncc3Br)ccc2n1 [Example 21, (R)-3-(4-(2-(4-(1-(4-((5-bromo-4-((5-(dimethylphosphoryl)-2-ethylquinolin-6-yl)amino)pyrimidin-2-yl)amino)-2-ethyl-5-methoxyphenyl)piperidin-4-yl)piperazin-1-yl)ethyl)-2,6-difluorophenyl)piperidine-2,6-dione]	89.6%
> 10000 nM	85.4 nM	77.1%	CCc1cc(Nc2ncc(Br)c(Nc3ccc4nc(C)ccc4c3P(C)(C)=O)n2)c(OC)cc1N1CCC(N2CCN(C(=O)[C@@H]3CCN(c4ccc([C@@H]5CCC(=O)NC5=O)cc4)C3)CC2)CC1 [Example 29, (S)-3-(4-((R)-3-(4-(1-(4-((5-bromo-4-((5-(dimethylphosphoryl)-2-methylquinolin-6-yl)amino)pyrimidin-2-yl)amino)-2-ethyl-5-methoxyphenyl)piperidin-4-yl)piperazine-1-carbonyl)pyrrolidin-1-yl)phenyl)piperidine-2,6-dione]	−4.12%

Reference: patent US20240207267A1, “(R)-Glutarimide CRBN Ligands and Methods of Use” (BeiGene Switzerland GmbH, priority 2021, published 2024)
